Test results as given in patent publication US8618066B1 (priority 2003, dated 2013).
“Also recorded” adds a separate entry of the source. No end group written: not given here.

Test system: Fusarium oxysporum f. sp. lycopersici (F. oxysporum)
Assay type: cell-based
Details: not given

Molecule | % Growth Inhibition, ProteCoat alone [%]
FRLKFHI [ProteCoat, amino acid polymer consisting essentially of 7 amino acids] | 44

Test system: Fusarium oxysporum f. sp. lycopersici
Details: not given

Molecule | growth at the lowest peptide concentration tested
FRLKFHI [antimicrobial peptidic agent-7] | clear retardation of growth

Same assay, conditions: 48 h, 0.78 mg/ml

Molecule | inhibition at the lowest peptide concentration tested
FRLKFHI [antimicrobial peptidic agent-7] | less than 10%

Test system: Gram+ & Gram− bacteria, fungi, virus, mammalian/cancer cells
Details: cited from earlier work

Molecule | Activity
FRLKFHI [ProteCoat, amino acid polymer consisting essentially of 7 amino acids] | Fungi
BMAP-27: peptide, source Bovine (GRFKRFRKKFKKLFKKLSPVIPLLHLG; BMAP-27; listed as Bos taurus) | Gram+ & Gram−, Fungi
Melanotropin alpha (Alpha-MSH): peptide, source Bovine (SYSMEHFRWGKPV; Melanotropin alpha (Alpha-MSH); listed as Bos taurus) | Gram+, Fungi
HNP-2 Defensin: peptide, source Human (CYCRIPACIAGERRYGTCIYQGRLWAFCC; HNP-2 Defensin; listed as Homo sapiens) | Gram+ & Gram−, Virus, Fungi
Pseudin 1: peptide, source Paradoxical frog (GLNTLKKVFQGLHEAIKLINNHVQ; Pseudin 1; listed as Pseudis paradoxa) | Gram+ & Gram−, Fungi
SEQ ID No. 178: synthetic antifungal peptide, Table 1 (WHWLQLKPGQPMY; listed as Saccharomyces cerevisiae) | Fungi
SEQ ID No. 195: synthetic antifungal peptide, Table 1 (WCQQKGQPCW; listed as Fusarium graminearum) | Fungi
Neutrophil defensin 2 (RMAD-2): peptide, source Rhesus macaque (ACYCRIPACLAGERRYGTCFYMGRVWAFCC; neutrophil defensin 2 (RMAD-2); listed as Macaca mulatta) | Gram+ & Gram−, Fungi
AFP1: peptide, source Turnip (QKLCERPSGTWSGVCGNNNACKNQCIN; AFP1; listed as Brassica rapa) | Fungi
SEQ ID No. 46: synthetic antifungal peptide, Table 1 (QFKLRF) | Fungi
Protegrin 3: peptide, source Pig (RGGGLCYCRRRFCVCVGR; Protegrin 3; listed as Sus scrofa) | Gram+ & Gram−, Virus, Fungi
SEQ ID No. 44: synthetic antifungal peptide, Table 1 (MFKLRF) | Fungi
Gaegurin-1: peptide, source Wrinkled frog (SLFSLIKAGAKFLGKNLLKQGACYAACKASKQC; Gaegurin-1; listed as Rana rugosa) | Gram+ & Gram−, Fungi
SEQ ID No. 187: synthetic antifungal peptide, Table 1 (MPSNTQTSNSSMGVNGYSYCVVM; listed as Cryphonectria parasitica) | Fungi
Histatin 1: peptide, source Crab eating macaque (DSHEERHHGRHGHHKYGRKFHEKHHSHRGYRSNYLYDN; Histatin 1; listed as Macaca fascicularis) | Gram+ & Gram−, Fungi
SEQ ID No. 38: synthetic antifungal peptide, Table 1 (YFKLRF) | Fungi
Histone H2A (fragment): source Rainbow trout (AERVGAGAPVYL; Oncorhynchus mykiss; Histone H2A (Fragment)) | Gram+, Fungi
Histatin 5: peptide, source Human (DSHAKRHHGYKRKFHEKHHSHRGY; Histatin 5; listed as Homo sapiens) | Gram+ & Gram−, Fungi
SEQ ID No. 43: synthetic antifungal peptide, Table 1 (SFKLRF) | Fungi
Holotricin 3: peptide, source Holotrichia diomphalia (peptide, listed as Holotrichia diomphalia, Holotricin 3, peptide, source Holotrichia diomphalia) YGPGDGHGGGHGGGHGGGHGNGQGGGHGHGPGGGFGGGHGGGHGGGGRGGGGSGGGGSPGHGAGGGYPGGHGGGHHGGYQTHGY | Fungi
NK-Lysin: peptide, source Sus scrofa (peptide, listed as Amaranthus caudatus) GYFCESCRKIIQKLEDMVGPQPNEDTVTQAASQVCDKLKILRGLCKKIMRSFLRRISWDILTGKKPQAICVDIKICKE | Gram+ & Gram−, Fungi

Same assay, conditions: classes of organisms/cells the peptide is active against; cited from earlier work

Molecule | Activity
Opistoporin 1: peptide, source African yellow leg scorpion (GKVWDWIKSTAKKLWNSEPVKELKNTALNAAKNLVAEKIGATPS; Opistoporin 1; listed as Opistophthalmus carinatus) | Gram+ & Gram−, Fungi,; also recorded: Mammalian cells
Parabutoporin: peptide, source Scorpion (FKLGSFLKKAWKSKLAKKLRAKGKEMLKDYAKGLLEGGSEEVPGQ; Parabutoporin; listed as Parabuthus schlechteri) | Gram+ & Gram−, Fungi,; also recorded: Mammalian cells
Dhvar4: peptide, source Synthesis (KRLFKKLLFSLRKY; Synthesis dhvar4) | Gram+ & Gram−, Fungi

Test system: Bacillus atrophaeus (B. atrophaeus)
Assay type: cell-based
Details: not given

Molecule | % Growth Inhibition, ProteCoat alone [%]
FRLKFHI [ProteCoat, amino acid polymer consisting essentially of 7 amino acids] | 0
